Measurements as given in patent US20230364118A1, “RIBITOL TREATMENT” (priority 2020, published 2023).
Where two headings read alike, the source gives them in different places.

Key:
[1] = Plasma protein binding, animals pooled (range); type: in vitro ADME, CD-1 mouse; conditions: CD-1, Sprague-Dawley, Gottingen, mouse, rat, minipig, animal plasma, 0.49 and 1.31 mM
Method: Protein binding studies with ribitol were performed in vitro using plasma from CD-1 mouse, Sprague-Dawley rat, Gottingen minipig, and human at 75 μg/mL (0.49 mM) and 200 μg/mL (1.31 mM) using the rapid equilibrium dialysis method. The percent of ribitol bound to plasma was approximately similar between the two concentrations tested in all species.

[2] = Phase 1 SAD/MAD study in healthy subjects; type: in vivo, human; conditions: for Cmax / Tmax / AUC(0-t): human, in vivo, oral, steady state, 6 days; for AUC(0-t): read-out: AUC(0-24)
Excerpt: The study described below is a randomized, blinded, placebo-controlled, parallel group study of the administration of single ascending doses (SAD) and multiple ascending doses (MAD) of ribitol to healthy subjects. The SAD part of this study includes 1 food effect (FE) cohort. The SAD and MAD phases of the study are nested.
Up to a maximum of 6 cohorts will be enrolled. The starting dose will be 0.5 g. Tentative dose levels will be 1.5 g, 3 g, 6 g, and 12 g, however, actual dose increments (including possible decrements) for Cohorts 2 and above will be determined by the safety review committee (SRC) and based on a minimum of 24 h of post dose PK data and at least 72 h post dose safety data from the previous dose level. A sentinel dosing plan will be employed at each dose level where the first 2 healthy participants (1 ribitol, 1 placebo) of each cohort will be dosed as sentinels at least 24 h prior to dosing the remaining cohort's participants. Once the informed consent form (ICF) is signed and eligibility criteria are determined, subjects will be admitted to the clinical research unit (CRU) 1 day prior to dosing (Day −1). Continuous cardiac monitoring using telemetry will be performed starting at least 12 h prior to dosing through at least 24 h after dosing.
Subjects will be admitted to the CRU 1 day prior to dosing (Day −1). On Day 1, subjects will start a 6-day course of orally administered daily study drug together with water after an overnight fast of at least 10 h prior to through at least 4 h after dosing. If dosing occurs more than once per day based on the data from the SAD cohort(s), instructions for dosing and any relaxation of the fasting requirements will be provided in a separate document. Water ad libitum is permitted except 1 h prior to through 1 h after dosing. Subjects will remain in the CRU until Day 8. Vital signs, ECGs, evaluation of AEs and blood draws for PK and safety laboratory tests will be obtained serially (see Schedule of Assessments, below). Subjects will return for an EOS visit on Day 10 (+5 day window allowed).
In the Phase 1 study, conducted essentially as described above, in Example 3. Subject in the single dose arm received 0.5, 1.5, 3, 6, 9, 12, or 15 grams of ribitol (data not shown). […] Subjects in the multiple dose arm received 1.5 g once daily, 3 g once daily, 3 g twice daily (q 12 h), 6 g twice daily (q 12 h), and 9 g twice daily (q 12 h). Subjects in the 3 g BID arm achieved steady-state AUC(0-24) values about the target threshold set by animal studies (182 μg*h/mL).
Clinical studies were performed as described in Example 3, with the exception that two additional doses of ribitol (9 g and 15 g) were administered in the SAD arm, i.e., the SAD doses were 0.5 g, 1.5 g, 3 g, 6 g, 9 g, 12 g, and 15 g ribitol.

Phase 2 patient study = type: in vivo, human; conditions: for average drop in fatigue (scale of 1 to 10): 90 days
Excerpt: Ribitol is being tested in an ongoing Phase 2 study with 14 patients receiving doses of either 6 g once daily (QD), 6 g twice daily (BID), or 12 g BID. Data is available following 3 months of therapeutic exposure in 8 subjects (6 g QD, n=4, 6 g BID, n=4). […] All 12 subjects have shown decreases in creatine kinase from baseline. Younger, ambulatory patients started with higher baseline creatine kinase values and had the largest magnitude drops. Decreases were observable starting at day 8 with continued declines through day 90. Efficacy studies are ongoing. Improvements in 10-meter walk test (MWT) to test ambulation, NSAD for gross motor function, PUL2.0 for upper limb function, and spirometry for respiratory function have been observed (Table 17). […] Decreases in patient-reported muscle fatigue over the 90-day treatment period has been observed in 7 of 8 patients. These 7/8 patients have reported decreases as recorded in a daily diary and noted on a scale of 1 to 10 where 1 indicates no fatigue and a 10 is the maximum level of fatigue.

[3] = 3 g, 3 g q 12 h (total 6 g/day)
[4] = 6 g q 12 h, 6 g q 12 h (total 12 g/day)
[5] = 9 g, 9 g q 12 h (total 18 g/day)
[6] = single doses 0.5, 1.5, 3, 6, 9, 12, 15 g

With `OC[C@@H](O)[C@@H](O)[C@@H](O)CO` [ribitol, (2R,3s,4S)-Pentane-1,2,3,4,5-pentol] the fraction unbound [1] was 0.554 to 0.614, the “dose linearity with exposure” value ([2]; SAD 0.5-15 g) was “confirmed dose linearity with exposure” and the Cmax ([2]; 1.5 g, 1.5 g once daily) was 25 µg/mL. The Tmax ([2]; 1.5 g, 1.5 g once daily) was 30.2 min, the AUC(0-t) ([2]; 1.5 g, 1.5 g once daily) was 59.8 µg·h/mL and the Cmax ([2]; 3 g, 3 g once daily) was 35.6 µg/mL. The Tmax ([2]; 3 g, 3 g once daily) was 30.2 min, the AUC(0-t) ([2]; 3 g, 3 g once daily) was 95 µg·h/mL and the Cmax [2, 3] was 38 µg/mL. For the same compound, the Tmax [2, 3] was 30.1 min, the AUC(0-t) [2, 3] was 219 µg·h/mL and the Cmax [2, 4] was 107 µg/mL. It also gave a Tmax [2, 4] of 45 min, an AUC(0-t) [2, 4] of 500 µg·h/mL and a Cmax [2, 5] of 143 µg/mL. The Tmax [2, 5] was 30.1 min, the AUC(0-t) [2, 5] was 673 µg·h/mL and the dose limiting toxicity [2, 6] was “no dose limiting toxicity was observed”. The tolerability [2, 6] was “well tolerated”, the “subjects with increase in glycosylation of αDG” value (Phase 2 patient study; 6 g BID, 3 months) was 3 of 4 and the “average decrease in creatine kinase” value (Phase 2 patient study; 6 g BID, day 90) was 77%. The “subjects with increase in glycosylation of αDG” value (Phase 2 patient study; 6 g QD, 3 months) was 4 of 4, the “average decrease in creatine kinase” value (Phase 2 patient study; 6 g QD, day 90) was 90% and the “average decrease in creatine kinase” value (Phase 2 patient study; 12 g BID, day 8) was 33%. For the same compound, the “patients with decrease in patient-reported muscle fatigue” value (Phase 2 patient study; 90-day treatment period) was 7 of 8, the “Mean 10MWT (Ambulation)” value (Phase 2 patient study; Baseline, Cohort 1 (6 g QD)) was 2.06 m/sec and the “Mean NSAD (Gross Motor Function)” value (Phase 2 patient study; Baseline, Cohort 1 (6 g QD)) was 33.8. For the same compound, the “Mean PUL2.0 (Upper Limb Function)” value (Phase 2 patient study; Baseline, Cohort 1 (6 g QD)) was 37.3, the “Mean 10MWT (Ambulation)” value (Phase 2 patient study; Baseline, Cohort 2 (6 g BID)) was 1.48 m/sec and the “Mean NSAD (Gross Motor Function)” value (Phase 2 patient study; Baseline, Cohort 2 (6 g BID)) was 28.5. For the same compound, the “Mean PP Supine FVC (Respiratory Function)” value (from here on “Mean PP Supine FVC”) (Phase 2 patient study; Baseline, Cohort 2 (6 g BID)) was 54.3, the “Mean PUL2.0 (Upper Limb Function)” value (Phase 2 patient study; Baseline, Cohort 2 (6 g BID)) was 35.8 and the “Mean 10MWT (Ambulation)” value (Phase 2 patient study; Baseline, Overall) was 1.77 m/sec. For the same compound, the “Mean NSAD (Gross Motor Function)” value (Phase 2 patient study; Baseline, Overall) was 31.1, the “Mean PP Supine FVC” value (Phase 2 patient study; Baseline, Overall) was 54.3 and the “Mean PUL2.0 (Upper Limb Function)” value (Phase 2 patient study; Baseline, Overall) was 36.5. The “Mean 10MWT (Ambulation)” value (Phase 2 patient study; Day 90, Cohort 1 (6 g QD)) was 2.82 m/sec, the “Mean NSAD (Gross Motor Function)” value (Phase 2 patient study; Day 90, Cohort 1 (6 g QD)) was 33.5 and the “Mean PP Supine FVC” value (Phase 2 patient study; Day 90, Cohort 1 (6 g QD)) was 79.5. For the same compound, the “Mean PUL2.0 (Upper Limb Function)” value (Phase 2 patient study; Day 90, Cohort 1 (6 g QD)) was 37.3, the “Mean 10MWT (Ambulation)” value (Phase 2 patient study; Day 90, Cohort 2 (6 g BID)) was 1.56 m/sec and the “Mean NSAD (Gross Motor Function)” value (Phase 2 patient study; Day 90, Cohort 2 (6 g BID)) was 29.0. For the same compound, the “Mean PP Supine FVC” value (Phase 2 patient study; Day 90, Cohort 2 (6 g BID)) was 50.0, the “Mean PUL2.0 (Upper Limb Function)” value (Phase 2 patient study; Day 90, Cohort 2 (6 g BID)) was 36.3 and the “Mean 10MWT (Ambulation)” value (Phase 2 patient study; Day 90, Overall) was 2.10 m/sec. For the same compound, the “Mean NSAD (Gross Motor Function)” value (Phase 2 patient study; Day 90, Overall) was 31.3, the “Mean PP Supine FVC” value (Phase 2 patient study; Day 90, Overall) was 64.8 and the “Mean PUL2.0 (Upper Limb Function)” value (Phase 2 patient study; Day 90, Overall) was 36.8. The “Mean 10MWT (Ambulation)” value (Phase 2 patient study; Delta, Cohort 1 (6 g QD)) was 0.10 m/sec, the “Mean NSAD (Gross Motor Function)” value (Phase 2 patient study; Delta, Cohort 1 (6 g QD)) was −0.3 and the “Mean PUL2.0 (Upper Limb Function)” value (Phase 2 patient study; Delta, Cohort 1 (6 g QD)) was 0.0. For the same compound, the “Mean 10MWT (Ambulation)” value (Phase 2 patient study; Delta, Cohort 2 (6 g BID)) was 0.08 m/sec, the “Mean NSAD (Gross Motor Function)” value (Phase 2 patient study; Delta, Cohort 2 (6 g BID)) was 0.5 and the “Mean PP Supine FVC” value (Phase 2 patient study; Delta, Cohort 2 (6 g BID)) was −4.3. For the same compound, the “Mean PUL2.0 (Upper Limb Function)” value (Phase 2 patient study; Delta, Cohort 2 (6 g BID)) was 0.5, the “Mean 10MWT (Ambulation)” value (Phase 2 patient study; Delta, Overall) was 0.09 m/sec and the “Mean NSAD (Gross Motor Function)” value (Phase 2 patient study; Delta, Overall) was 0.1. For the same compound, the “Mean PP Supine FVC” value (Phase 2 patient study; Delta, Overall) was −4.3, the “Mean PUL2.0 (Upper Limb Function)” value (Phase 2 patient study; Delta, Overall) was 0.3 and the “average increase in glycosylation of αDG” value (Phase 2 patient study; both cohorts (6 g QD, 6 g BID), 3 months) was 13%. For the same compound, the “average drop in fatigue (scale of 1 to 10)” value (Phase 2 patient study; cohort 1 (6 g QD)) was 1.3 points and the “average drop in fatigue (scale of 1 to 10)” value (Phase 2 patient study; cohort 2 (6 g BID)) was 1.5 points.
